Results as given in patent publication US7879792B2, “Synthetic peptide inhibitors of thrombin and thrombin activation of protease activated receptors 1 and 4” (The Regents of the University of Michigan, priority 2005, dated 2011).
“Also recorded” adds a separate entry of the source. Where a SMILES comes first, the peptide text is derived from it.

How the values were obtained:
[1] = rat intestinal in situ perfusion permeability; type: in vivo
Method: To determine the intestinal permeability of the various peptide analogs, male albino Sprague-Dawley rats, 9-10 weeks old and weighing 250-350 g were fasted for 18 hours with free access to water. The rats were anesthetized with an intramuscular injection of ketamine/xylazine/butorphanol (87 mg/kg, 6 mg/kg, and 0.2 mg/kg body weight, respectively). The abdomen was opened by a 4-5 cm midline incision and a 10 cm jejunal segment was cannulated on two ends and connected to a syringe pump that pumps the perfusing solution through the cannulated intestine at a constant rate and at a temperature of 37° C. The isolated segment was rinsed with 10 mM MES (pH 6.5) at a flow-rate of 0.5 ml/min in order to clean out any residual debris. Jejunal perfusion was subsequently performed with the same buffer containing 135 mM NaCl, 5 mM KCl and 0.01% PEG 4000 at a flow rate of 0.2 ml/min containing test compound, internal permeability reference standards (e.g., metoprolol) and ^14C-PEG 4000 as a non-absorbable marker for measuring water flux. After steady-state is reached within the perfused intestinal segment, typically 30 minutes after start of perfusion, samples were taken at 10 minute intervals for 1 hour. ^14C (PEG-4000) levels are assayed by scintillation counting and test compounds and internal permeability standard analysis by LC/MS/MS. Samples are frozen and stored at −80° C. until analysis.
The effective permeability (Peff) determined from the in situ perfusion is calculated from equation 1
[formula] where Q is the perfusion buffer flow rate, C′out is the outlet concentration of the compound that has been adjusted for water transport (equation 2) after passing through the intestinal segment, C′in is the inlet or starting concentration of the compound, R is the radius of the intestinal segment (set to 0.2 cm) and L is the length of the intestinal segment. To correct for water transport, a non-absorbed radioactive tracer, ^14C PEG-4000, is included in the perfusion buffer. The Cout/Cin ratio is corrected for water transport according to equation 2:
[formula] where Aout-A0 is equal to the radioactivity counts in the outlet sample minus background (dpm) and Ain-A0 is equal to the radioactivity counts in the inlet sample minus background (dpm).
In certain instances, in addition to perfusing the intestinal segment as described, plasma is drawn through a portal vein cannula to determine the amount of material entering the portal system during the perfusion. This additional experimental step can aid in determining the true intestinal permeability of unstable compounds. After steady state conditions are reached as described above, 0.5 ml aliquots of plasma are withdrawn from the portal vein at regular intervals throughout the experimental time frame. The plasma samples are deproteinated with acetonitrile and the sample is subjected to SPE and LC/MS analysis as described above. From the plasma concentration of compound, the mesenteric permeability can be determined by substitution into equation 3: Flux=A*Pe-mes*Ci 3) where Flux is equal to the portal blood flow (estimated at 1 ml/min in the rat)×the steady state mesenteric blood concentration of the peptide analogs, A is the absorptive area of the intestine (estimated at 12.56 cm^2 in the rat intestine), Pe-mes is the mesenteric Permeability (cm/sec), and Ci is the starting concentration of drug in the perfusate (ug/ml).

[2] = system: normal human citrated plasma; assay: activated partial thromboplastin time (APTT); type: biochemical
Method: (§1) The influence of the various peptide formulations used in the present invention on established coagulation-based assays was determined. The activated partial thromboplastin time (APTT) is performed by mixing 0.05 ml normal human citrated plasma with 0.05 ml activated partial thromboplastin reagent purchased from Organon Teknika, Research Triangle Park, NC in the absence or presence of a peptide inhibitor. After incubation for 5 min at 37° C., the mixture is recalcified with 0.05 ml of 30 mM calcium chloride and the time to clot formation is measured in an Amelung KC4A instrument (Sigma Chemical Corp, St. Louis, Mo.) (Hasan et al. Thrombosis and Haemostasis. 82, 1182-1187 (1999)). The prothrombin time (PT) is performed by mixing 0.05 ml normal human citrated plasma with 0.05 ml Simplastin (Organon Teknika, Research Triangle Park, NC) followed by incubation for 3 min at 37° C. in the absence or presence of a peptide inhibitor. At the addition of 0.05 ml of 30 mM calcium chloride, the time to clot formation is measured in an KC4A instrument (Sigma Chemical Corp, St. Louis, Mo.) (Hasan et al. Thrombosis and Haemostasis. 82, 1182-1187 (1999)). The thrombin clotting time (TCT) is performed by adding 0.1 ml normal human citrated plasma in the absence or presence of a peptide inhibitor and 0.05 ml of a α-thrombin solution such that the final concentration of the thrombin in the entire mixture was 1 nM. Upon addition of the thrombin, the time to clot formation is measured in an KC4A instrument (Sigma Chemical Corp, St. Louis, Mo.).

[3] = system: normal human citrated plasma; assay: thrombin clotting time (TCT); type: biochemical; conditions: 1 nM thrombin
Method: as §1

γ-thrombin = assay: inhibition of γ-thrombin hydrolysis of chromogenic substrate; type: biochemical, human; conditions: read-out: Ki (μM) + SD, γIIa (2 nM); gamma-thrombin 2 nM, Sar-Pro-Arg-paranitroanilide
[4] = system: normal human citrated plasma; assay: prothrombin time (PT); type: biochemical
Method: as §1

C57BL6 mice = assay: Rose Bengal model for arterial thrombosis, time to carotid artery occlusion; type: in vivo, mouse; conditions: 0.2 to 3.22 mg/kg IP
Excerpt: C57BL6 mice 6 to 16 weeks of age were anesthetized by intraperitoneal injection with sodium pentobarbital and placed in the supine position on a dissecting microscope (Nikon SMZ-2T, Mager Scientific, Inc., Dexter, Mich.). A midline surgical incision was made to expose the right common carotid artery and a Doppler flow probe (Model 0.5 VB, Transonic Systems, Ithaca, N.Y.) is placed under the vessel. The probe was connected to a flowmeter (Transonic Model T106) and was interpreted with a computerized data acquisition program (Windaq, DATAQ Instruments, Arkron, Ohio). Rose Bengal (4,5,6,7-tetrachloro-3′,6-dihydroxy-2,4,5,7-tetraiodospiro(isobenzofuran-1(3H), 9 [9H] xanthan)-3-1 dipotassium salt) (Fisher Scientific, Fair Lawn, N.J.) at 50 mg/kg in 0.9% saline) was then injected into the tail vein in a 0.12 ml volume (Eitzman et al., Blood 95, 577 (2000)). After injection into the tail vein, a green laser light (Melles Griot, Carlsbad, Calif.) at a wavelength of 540 nm was applied 6 cm from the carotid artery. Flow is monitored continuously from the onset of injury. The time to occlusion was determined only after the vessel remained closed with a cessation of blood flow for 20 min. […] These investigations indicate that these compounds are able to prevent thrombosis in the whole animal in vivo.

N=C(N)NCCC[C@@H](N)C(=O)N1[C@H](C(=O)N2CCC[C@H]2C(=O)NCC(=O)N[C@@H](Cc2ccccc2)C(N)=O)C[C@@H]2CCCC[C@@H]21 [rOicPGF, D-Arg-Oic-Pro-Gly-Phe, reference compound] (HELM PEPTIDE1{[dR].[O=C([C@@H]1C[C@@H]2CCCC[C@@H]2N1[*:1])[*:2]].P.G.F.[am]}$$$$V2.0)
Permeability (in situ) (cm/sec) ([1]; rat jejunal in situ perfusion): Degraded
Papp ([1]; rat, from portal vein plasma during perfusion, read-out: Permeability (mesenteric)): 0.451 ×10⁻⁶ cm/s

Cc1ccc(C[C@H](NC(=O)[C@@H](C)NC(=O)[C@@H]2CCCN2C(=O)[C@@H]2C[C@@H]3CCCC[C@@H]3N2C(=O)[C@H](N)CCCNC(=N)N)C(N)=O)cc1 [rOicPaF(p-Me), D-Arg-Oic-Pro-D-Ala-Phe(p-Me)] (HELM PEPTIDE1{[dR].[O=C([C@@H]1C[C@@H]2CCCC[C@@H]2N1[*:1])[*:2]].P.[dA].[Cc1ccc(C[C@H](N[*:1])C(=O)[*:2])cc1].[am]}$$$$V2.0)
peptide concentration with significant prolongation (p<0.05) of the APTT [2]: 1.56 µM
peptide concentration with significant prolongation (p<0.05) of the TCT [3]: 0.78 µM
Ki (γ-thrombin): 54.3 ± 16 µM
peptide concentration with significant prolongation (p<0.05) of the PT [4]: 1.56 µM
time to occlusion of the mouse right carotid artery (C57BL6 mice): significant prolongation; also recorded: progressively prolonged
